{
  "source": "PubChem BioAssay AID493101",
  "about": "(Broad Institute, 2011)",
  "note": "Inconclusive results are not listed. The source made the active and inactive calls.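 Rule for the calls: active = luminescence falls with dose and the fitted half-maximal concentration is within ten times the top dose in every run; inconclusive = runs disagree, or a flat moderate drop, or a poor fit; inactive = every run inactive, including rises or flat response.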",
  "data": [
    {"test_system": "not listed separately", "assay": "inhibitors of AI-2 quorum sensing in V. harveyi, dose response, LuxS, LuxPQ, dry powder, set 4 (AID 493101)", "conditions": "Vibrio harveyi JMH597 AI-2 quorum sensing luminescence, 9 h; at 16 µM (top of the series)", "values": [
      {"compound": "Cn1cnc(S(=O)(=O)Nc2ccccc2Cl)c1", "activity change, negative = inhibition": "3.87% (inactive)"},
      {"compound": "Cc1ccccc1NS(=O)(=O)c1cn(C)cn1", "activity change, negative = inhibition": "-1.44% (inactive)"},
      {"compound": "CCc1ccc(-c2ccc(C(=O)O)n2CC)cc1", "activity change, negative = inhibition": "2.4% (inactive)"},
      {"compound": "CC(=O)Nc1ccccc1NS(=O)(=O)c1cn(C)cn1", "activity change, negative = inhibition": "2.17% (inactive)"},
      {"compound": "Cn1cnc(S(=O)(=O)Nc2ccccc2F)c1", "activity change, negative = inhibition": "2.07% (inactive)"},
      {"compound": "CN(C)C(=O)c1ccccc1NS(=O)(=O)c1cn(C)cn1", "activity change, negative = inhibition": "0.404% (inactive)"},
      {"compound": "COc1ccccc1NS(=O)(=O)c1cn(C)cn1", "activity change, negative = inhibition": "-5.36% (inactive)"}
    ]},
    {"test_system": "Vibrio harveyi JMH597 AI-2 quorum sensing luminescence, 9 h", "assay": "inhibitors of AI-2 quorum sensing in V. harveyi, dose response, LuxS, LuxPQ, dry powder, set 4 (AID 493101)", "conditions": "not given", "units": {"AC50": "µM"}, "values": [
      {"compound": "C=Cn1c(C(=O)O)ccc1-c1ccc(CC)cc1", "AC50": 3.22},
      {"compound": "O=S(=O)(Nc1cccnc1)c1ccc(Oc2ccccc2)cc1", "AC50": 0.766},
      {"compound": "O=S(=O)(Nc1ccccn1)c1ccc(Oc2ccccc2)cc1", "AC50": 7.34},
      {"compound": "O=C1C=C/C(=C/Br)O1", "AC50": 4.64},
      {"compound": "Cn1cnc(S(=O)(=O)Nc2ccc(OC(F)(F)F)cc2)c1", "AC50": 8.62},
      {"compound": "CCc1ccc(-c2ccc(C(=O)O)n2C)cc1", "AC50": 5.52}
    ]}
  ]
}
